Laboratory results published in patent publication US20250235545A1, “POLYPEPTIDE CONJUGATE AND USE THEREOF” (SHANGHAI CHIXI BIOMEDICAL TECHNOLOGY CO., LTD, priority 2024, published 2025).
Values after ≈ are worked out from the molar mass of the structure shown. Where a SMILES comes first, the peptide text is derived from it. The star is where a group is joined. X2 = CCCCN(CCc1c2c(nc3ccccc13)-c1cc3c(c(=O)n1C2)COC(=O)[C@]3(O)CC)*; X4 = CCCN(CCc1c2c(nc3ccccc13)-c1cc3c(c(=O)n1C2)COC(=O)[C@]3(O)CC)*; X5 = CC[C@@]1(O)C(=O)OCc2c1cc1n(c2=O)Cc2c-1nc1ccccc1c2CCN(CC(C)C)*; Propanoyl(3-maleimido) = O=C1C=CC(=O)N1CCC(=O)*; PEG6 = NCCOCCOCCOCCOCCOCCOCCC(=O)O

What was measured:
[1] = tested on: colo320 (colorectal cancer tissue); test: cells; format: cell-based; conditions: CCK8, 48 h; Table 6
Summary of the method: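 Colo320 cells, 5,000 per well, exposed to drug concentration series for 48 h at 37 °C, 5% CO2 (0.1% DMSO controls). Viability by CCK8, absorbance at 450 nm after about 2 h. Survival rates and IC50 calculated.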

[2] = Tumor homogenate activation efficiency, colorectal cancer tissue (Example 37); format: in vitro ADME; conditions: pH 5.0, 37° C., 2 h; Table 10
Protocol: Buffer preparation: 50 mM PH buffer (MES), 250 mM NaCl, pH adjusted to 5.0 with 0.5 M of sodium hydroxide.
The polypeptide conjugate was prepared into a 1 mg/ml solution with pH 5.0 buffer, 100 μg of tumor tissue homogenate was added, (the tumor tissue homogenate was the homogenate of tumor tissues prepared with a Jingxin F6/10 handheld homogenizer), and the solution was placed at 37° C. for 2 h. The tumor tissue homogenate could effectively activate the polypeptide conjugate and release Belotecan, and the activation efficiencies of the drugs in tumor tissues were compared by HPLC allowing determination of a decrease in the compounds and an increase in Belotecan:
Release percentage=peak area of Belotecan/total peak area of Belotecan and all other Belotecan-containing compounds

[3] = Homogenate activation efficiency, heart tissue (Examples 28, 37); format: in vitro ADME; conditions: pH 5.0, 37° C., 2 h
SJSA-1 (sarcoma tissue) = test: cells; format: cell-based; conditions: for IC50 Sarcoma tissue (SJSA-1): CCK8, 48 h, Table 6
Summary of the method: (§1)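 Tumour cells grow for 48 h with the compounds at several concentrations (5,000 cells/well, triplicate, 37° C, 5% CO2), in serum-supplemented RPMI1640 or high-glucose DMEM. Viability is measured with CCK8 reagent at 450 nm, and IC50 is calculated.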

A2780 (ovarian cancer) = test: cells; format: cell-based; conditions: for IC50 Ovarian cancer tissue (A2780): CCK8, 48 h, Table 6
Summary of the method: as §1

[4] = tested on: A549 (non-small cell lung cancer); test: cells; format: cell-based; conditions: for IC50 Non-small cell lung cancer tissue (A549): CCK8, 48 h, Table 6
Summary of the method: as §1

[5] = tested on: SKBR3 (breast cancer tissue); test: cells; format: cell-based; conditions: for IC50 Breast cancer tissue (SKBR3): CCK8, 48 h, Table 6
Summary of the method: as §1

[6] = tested on: A2780 ovarian cancer tumor model; test: Efficacy in animal model of A2780 ovarian cancer, 30 mg/kg once a week for two weeks (Example 41); format: in vivo, BALB/c mice
Protocol: Test objective: To further compare the antitumor efficacy of different polypeptide Linkers in an animal tumor model of A2780 ovarian cancer.
Test drug: Polypeptide conjugate and normal saline control group.
8×10^6 corresponding cells were injected into right axillas of nude mice subcutaneously. […] The negative control group was administered normal saline. Administration was performed once a week for two weeks.

[7] = Tumor homogenate activation efficiency, sarcoma tissue (Examples 28, 37); format: in vitro ADME; conditions: pH 5.0, 37° C., 2 h
Summary of the method: (§2)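 Conjugate at 1 mg/ml in 50 mM MES, 250 mM NaCl, pH 5.0 was incubated with 100 μg tissue homogenate at 37° C for 2 h. HPLC tracked Belotecan release, expressed as Belotecan peak area over total area of Belotecan and all Belotecan-containing species.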

[8] = Tumor homogenate activation efficiency, non-small cell lung cancer tissue (Examples 28, 37); format: in vitro ADME; conditions: pH 5.0, 37° C., 2 h
Summary of the method: as §2

[9] = Tumor homogenate activation efficiency, breast cancer tissue (Examples 28, 37); format: in vitro ADME; conditions: pH 5.0, 37° C., 2 h
Summary of the method: as §2

SMILES | IC50 Colorectal cancer tissue (colo320) [1] | Percentage of release efficiency (%) Colorectal cancer tissue (colo320) [2] | Percentage of release efficiency (%) Heart tissue ([3]; Table 10) | IC50 Sarcoma tissue (SJSA-1) (SJSA-1 (sarcoma tissue)) | IC50 Ovarian cancer tissue (A2780) (A2780 (ovarian cancer)) | IC50 Non-small cell lung cancer tissue (A549) [4] | IC50 Breast cancer tissue (SKBR3) [5] | A2780 (ovarian cancer) mean tumor volume (mm^3) Day 1 [6] | A2780 (ovarian cancer) mean tumor volume (mm^3) Day 4 [6] | A2780 (ovarian cancer) mean tumor volume (mm^3) Day 7 [6] | A2780 (ovarian cancer) mean tumor volume (mm^3) Day 10 [6] | A2780 (ovarian cancer) mean tumor volume (mm^3) Day 14 [6] | Growth rate (%) of A2780 (ovarian cancer) on Day 14 [6] | Mouse weight (%) on Day 14 [6] | Percentage of release efficiency (%) Sarcoma tissue (SJSA1) ([7]; Table 10) | Percentage of release efficiency (%) Non-small cell lung cancer tissue (A549) ([8]; Table 10) | Percentage of release efficiency (%) Breast cancer tissue (SKBR3) ([9]; Table 10) | further results
CCCN(CCc1c2c(nc3ccccc13)-c1cc3c(c(=O)n1C2)COC(=O)[C@]3(O)CC)C(=O)[C@H](CC(C)C)NC(=O)[C@H](CC(N)=O)NC(=O)[C@H](C)NC(=O)[C@H](C)NC(=O)CCOCCOCCOCCOCCOCCOCCNC(=O)CCN1C(=O)C=CC1=O [MI-6PEG-AANL-D3] ({Propanoyl(3-maleimido)-PEG6}-AANL-X4) | 3.28 µg/mL (≈ 2.54 µM) | 71.6% | 3.9% | 1.52 µg/mL (≈ 1.18 µM) | 1.15 µg/mL (≈ 0.892 µM) | 1.87 µg/mL (≈ 1.45 µM) | 2.56 µg/mL (≈ 1.99 µM) | 134.07 mm^3 | 387.76 mm^3 | 768.59 mm^3 | 998.38 mm^3 | 1508.23 mm^3 | 1124.96% | +12.2% | 90% | 66.8% | 67.9% | –
CCCCN(CCc1c2c(nc3ccccc13)-c1cc3c(c(=O)n1C2)COC(=O)[C@]3(O)CC)C(=O)[C@H](CC(C)C)NC(=O)[C@H](CC(N)=O)NC(=O)[C@H](C)NC(=O)[C@H](C)NC(=O)CCOCCOCCOCCOCCOCCOCCNC(=O)CCN1C(=O)C=CC1=O [MI-6PEG-AANL-D4] ({Propanoyl(3-maleimido)-PEG6}-AANL-X2) | 5.40 µg/mL (≈ 4.14 µM) | 76.5% | 4% | 2.94 µg/mL (≈ 2.26 µM) | 2.47 µg/mL (≈ 1.89 µM) | 3.72 µg/mL (≈ 2.85 µM) | 3.94 µg/mL (≈ 3.02 µM) | 133.89 mm^3 | 309.51 mm^3 | 703.24 mm^3 | 894.45 mm^3 | 1345.03 mm^3 | 1004.58% | +14.5% | 81.2% | 77.7% | 75.3% | –
CC[C@@]1(O)C(=O)OCc2c1cc1n(c2=O)Cc2c-1nc1ccccc1c2CCN(CC(C)C)C(=O)[C@H](CC(C)C)NC(=O)[C@H](CC(N)=O)NC(=O)[C@H](C)NC(=O)[C@H](C)NC(=O)CCOCCOCCOCCOCCOCCOCCNC(=O)CCN1C(=O)C=CC1=O [MI-6PEG-AANL-D5] ({Propanoyl(3-maleimido)-PEG6}-AANL-X5) | 2.42 µg/mL (≈ 1.86 µM) | 69.8% | 5.5% | 1.58 µg/mL (≈ 1.21 µM) | 1.13 µg/mL (≈ 0.867 µM) | 1.34 µg/mL (≈ 1.03 µM) | 2.20 µg/mL (≈ 1.69 µM) | 134.01 mm^3 | 254.52 mm^3 | 612.55 mm^3 | 730.28 mm^3 | 1116.71 mm^3 | 833.30% | +7.9% | 77.5% | 85.5% | 70.2% | –
CC[C@@]1(O)C(=O)OCC2=C1C=C1c3nc4ccccc4c(CCN(C(=O)OCc4ccc(NC(=O)[C@H](CC(N)=O)NC(=O)[C@H](C)NC(=O)[C@H](C)NC(=O)CCOCCOCCOCCOCCOCCOCCNC(=O)CCN5C(=O)C=CC5=O)cc4)C(C)C)c3CN1C2 [MI-6PEG-AAN-PAB-Belotecan] | – | – | – | – | – | – | – | 151.03 mm^3 | 282.87 mm^3 | 579.35 mm^3 | 837.75 mm^3 | 1135.00 mm^3 | 751.51% | +1.2% | – | – | – | Percentage of release efficiency (%) Heart tissue ([3]; Table 5): 2.7%; IC50 SJSA-1 (sarcoma tissue) (SJSA-1 (sarcoma tissue); 48 h): 0.26 µg/mL (≈ 0.198 µM); IC50 A2780 (ovarian cancer) (A2780 (ovarian cancer); 48 h): 0.34 µg/mL (≈ 0.259 µM); IC50 A549 (non-small cell lung cancer) ([4]; 48 h): 0.39 µg/mL (≈ 0.297 µM); IC50 SKBR3 (breast cancer tissue) ([5]; 48 h): 0.40 µg/mL (≈ 0.305 µM); Percentage of release efficiency (%) Sarcoma tissue (SJSA1) ([7]; Table 5): 78.5%; Percentage of release efficiency (%) Non-small cell lung cancer tissue (A549) ([8]; Table 5): 79.9%; Percentage of release efficiency (%) Breast cancer tissue (SKBR3) ([9]; Table 5): 69.4%
